Consider 1 molecule from paper PMC3154012 (Journal of the American Chemical Society, 2011).

Each structure is given as a SMILES string.

Usually Kd stands for a measure of binding affinity in units of concentration. A high value points to a looser complex.

The target in assay [1] is Mn-C1634 (thermostable chimeric P450 heme domain C1634). The experiment in a line: optical absorbance titration, two-component binding fit. Conditions: Mn(III)-PPIX in place of heme; PBS; 5 μM protein. Details: species or system Priestia megaterium; Bacillus subtilis.
The target of assay [2] is T1, Mn-BM3h (wild-type cytochrome P450 BM3 heme domain) (Priestia megaterium, UniProt P14779).
T1 sequence (P14779 2-464 limits assumed): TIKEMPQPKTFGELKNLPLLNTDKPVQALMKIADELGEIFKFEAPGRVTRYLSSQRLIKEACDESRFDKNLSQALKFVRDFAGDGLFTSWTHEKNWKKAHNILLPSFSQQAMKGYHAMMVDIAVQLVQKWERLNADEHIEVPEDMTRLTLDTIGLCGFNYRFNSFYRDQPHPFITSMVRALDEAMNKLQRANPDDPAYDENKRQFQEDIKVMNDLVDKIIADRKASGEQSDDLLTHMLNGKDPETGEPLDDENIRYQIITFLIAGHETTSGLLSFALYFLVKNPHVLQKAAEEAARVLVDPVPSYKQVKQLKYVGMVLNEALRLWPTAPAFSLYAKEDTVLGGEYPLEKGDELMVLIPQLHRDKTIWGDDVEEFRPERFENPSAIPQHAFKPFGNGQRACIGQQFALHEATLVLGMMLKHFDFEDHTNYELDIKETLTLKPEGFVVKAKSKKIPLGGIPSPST
The experiment in a line: optical absorbance titration. Type of assay: binding.

As for `CCCCC/C=C\C/C=C\C/C=C\C/C=C\CCCC(=O)O` [AA, arachidonic acid], the Kd in assay [1] turned out to be 2500 ± 700 nM; in assay [2] it was 700 ± 500 nM.
